{"source": "PubChem BioAssay (NCI)", "system": "SN12K1 renal", "experiment": "inhibition of tumour cell growth, NCI panel, 48 h", "note": "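Dose response: 5 concentrations. Exposure: 48 h. Format: 96-well plates. Endpoint: linear interpolation; highest concentration if not reached. Definition used: TGI = concentration required for complete inhibition of growth.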", "data": [{"smiles": "CCCCCCCC(=O)O[C@H]1[C@H]2[C@@H](CC1(C)C)C(=O)[C@]13O[C@H]1C(=O)[C@]1(CO1)[C@]23C", "values": [{"measurement": "TGI", "result": 9.3, "unit": "µM"}]}]}
